The text below walks through data of US9976183B2, “Biomarkers for cancers responsive to modulators of HEC1 activity” (TAIVEX THERAPEUTICS CORPORATION, priority 2011, dated 2018).

Common to all, as to format: cell-based
The test system of experiment [1] is apoptotic caspases in resistant cell line (A549). Nature of the experiment: Immunoblot of apoptotic and anti-apoptotic markers. The conditions noted are these: A549, immunoblot (FIG. 5C, FIG. 5D). How it is done:
(§1) Immunoblots: Cell lysates were by incubation of cells in radioimmunoprecipitation assay (RIPA) buffer (50 mM Tris-HCl, pH7.4, 150 mM NaCl, 1% NP40, 0.25% DOC, 0.1% SDS, 1 mM NaVO4, 1 mM EDTA, 1 ug/ml leupeptin, 1 μg/ml pepstatin) or 2.5× sample buffer (50 mM Tris-HCl, pH6.8, 1% SDS, 2.5% BME, 7.5% Glycerol, Bromophenol blue). Tissue samples were immersed in RIPA buffer, disrupted with a homogenizer, and centrifuged to clarify. Samples were then subjected to SDS-PAGE, blotted onto immunoblotting membranes, and incubated with primary antibodies in 3% BSA-TBST. Horseradish peroxidase—conjugated secondary antibodies were used for protein detection by enhanced chemiluminescence (Millipore, Billerica, Mass. 01821 USA). The following antibodies were used for Western blotting: anti-Rb monoclonal antibody 1F8 (Abcam, Cambridge, Mass. 02139-1517 USA); anti-p53 monoclonal antibody (Santa Cruz Biotechnology, Santa Cruz, Calif. 95060 USA); anti-β-actin monoclonal antibody AC-15 (Sigma Aldrich, St. Louis, Mo., USA).
A general note: A western blot detects proteins with antibodies after separation by electrophoresis.

For experiment [2], the system named is apoptotic caspases in drug-responsive cells (HeLa). Nature of the experiment: Immunoblot of apoptotic and anti-apoptotic markers. As to conditions: immunoblot (FIG. 5B, FIG. 5D). How it is done:
as §1

Experiment [3] relates to HepG2. Nature of the experiment: Drug sensitivity, MTS cell viability assay (GI50). As to conditions: Homo sapiens; HepG2, 96 hours, MTS. How it is done:
(§2) Drug sensitivity: Cell lines were screened for drug sensitivity by treatment with specified drugs 24 hours after seeding in appropriate seeding numbers into 96 well plates containing low glucose DME with 10% FBS. The drug was added to the plate in triplicate wells, and the cells are incubated in drug treated medium for 96 hours before cell viability was determined by MTS assay using CellTiter 96® Aqueous non-radioactive cell proliferation assay system (Promega, Madison, Wis. 53711 USA). The MTS assay was performed according to the manufacturer's instructions. Optical density was measured using a Bio-Tek 340 spectrophotometer (Bio-Tek, Winooski, Vt. 05404) and optical readings were then processed in Excel (Microsoft, Redmond, Wash. 98052-7329) and GraphPad Prism 5 linear regression software (GraphPad Software, La Jolla, Calif. 92037 USA) to determine concentration-response curves for calculating relative GI50s. […] The % growth inhibition of the test drug on cells were calculated as: [1−(Test Value)/(Control Value)]×100; these values were used to plot concentration-response curves, and then analyzed with linear regression software.
Background: Formazan colour is commonly taken as a measure of viable cells.

The subject of experiment [4] is RS4:11. Nature of the experiment: Drug sensitivity, MTS cell viability assay (GI50). As to conditions: Homo sapiens, RS4:11, 96 hours. How it is done:
as §2

Experiment [5] deals with MOLT-4. The experiment is described as follows: Drug sensitivity, MTS cell viability assay (GI50). The conditions noted are these: Homo sapiens, MOLT-4, 96 hours. How it is done:
as §2

Experiment [6] has as its system MDA-MB-361. The experiment is described as follows: Drug sensitivity, MTS cell viability assay (GI50). As to conditions: Homo sapiens, MDA-MB-361, 96 hours. How it is done:
as §2

The test system of experiment [7] is COLO205. Nature of the experiment: Drug sensitivity, MTS cell viability assay (GI50). The conditions noted are these: Homo sapiens, COLO 205, COLO205, 96 hours. How it is done: as §2
In experiment [8] the test system is Hep3B. Nature of the experiment: Drug sensitivity, MTS cell viability assay (GI50). How it is done:
as §2

Experiment [9] relates to BT474. The experiment is described as follows: Drug sensitivity, MTS cell viability assay (GI50). As to conditions: Homo sapiens, BT-474, BT474, 96 hours. How it is done:
as §2

The test system of experiment [10] is NCI-H520. The experiment is described as follows: Drug sensitivity, MTS cell viability assay (GI50). As to conditions: Homo sapiens, NCI-H520, 96 hours. As for the experimental part: as §2
The subject of experiment [11] is ZR-75-1. The experiment is described as follows: Drug sensitivity, MTS cell viability assay (GI50). The conditions noted are these: Homo sapiens, ZR-75-1, 96 hours. How it is done:
as §2

Experiment [12] concerns RPMI8226. Nature of the experiment: Drug sensitivity, MTS cell viability assay (GI50). As to conditions: Homo sapiens, RPMI-8226, RPMI8226, 96 hours. How it is done: as §2
Experiment [13] deals with KG-1. The experiment is described as follows: Drug sensitivity, MTS cell viability assay (GI50). The conditions noted are these: Homo sapiens, KG-1, 96 hours. As for the experimental part: as §2
The subject of experiment [14] is HCC1954. The experiment is described as follows: Drug sensitivity, MTS cell viability assay (GI50). The conditions noted are these: Homo sapiens, HCC1954, 96 hours. How it is done: as §2
Experiment [15] relates to ZR-75-30. Nature of the experiment: Drug sensitivity, MTS cell viability assay (GI50). As to conditions: Homo sapiens, ZR-75-30, 96 hours. As for the experimental part: as §2
The subject of experiment [16] is N87. Nature of the experiment: Drug sensitivity, MTS cell viability assay (GI50). The conditions noted are these: N87, 96 hours. As for the experimental part: as §2
Experiment [17] has as its system PLC/PRF/5. The experiment is described as follows: Drug sensitivity, MTS cell viability assay (GI50). As to conditions: Homo sapiens, PLC/PRF/5, 96 hours. How it is done: as §2
For experiment [18], the system named is U-937. The experiment is described as follows: Drug sensitivity, MTS cell viability assay (GI50). The conditions noted are these: Homo sapiens, U-937, 96 hours. As for the experimental part:
as §2

Experiment [19] deals with Hs578T. Nature of the experiment: Drug sensitivity, MTS cell viability assay (GI50). The conditions noted are these: Homo sapiens, Hs-578T, 96 hours. As for the experimental part: as §2
In experiment [20] the test system is NCI/ADR-RES. Nature of the experiment: Synergy of Hec1 inhibitor with cytotoxic drug (combination index, MTS). The conditions noted are these: in combination with paclitaxel. How it is done:
Synergy: GI50s for selected drugs were determined and used to calculate a concentration ratio for use synergy assays with Hec1 inhibitors. Cells were treated with drugs 24 hours after being seeded in appropriate seeding numbers into 96 well plates containing low glucose DME with 10% FBS. […] Cell viability was determined by MTS assay using a CellTiter 96® Aqueous non-radioactive cell proliferation assay system (Promega, Madison, Wis. 53711 USA) according to the manufacturer's instructions. Optical density was determined using a Bio-Tek 340 spectrophotometer (Bio-Tek, Winooski, Vt. 05404) and were then processed using Excel (Microsoft, Redmond, Wash. 98052-7329) and GraphPad Prism 5 linear regression software (GraphPad Software, La Jolla, Calif. 92037 USA) to determine concentration-response curves for calculating relative GI50s. Synergy was determined by calculating a combination index value using the formula CI (combination index)=(CA,X/ICx,A)+(CB,X/ICx,B), where CA,X and CB,X are the concentrations of drug A and drug B used in combination to achieve x % drug effect. ICx,A and ICx,B are the concentrations for single agents to achieve the same effect.
Drugs that can target pathways unreached by other current anti-cancer drugs have even better clinical potential to be incorporated into current therapeutic regimens. […] Hec1 inhibitor-responsive cancer cells used for screening were treated with a mixture of Hec1 inhibitor and select anti-cancer drug at appropriate concentration ratios and evaluated for cell viability. […] Table 9 summarizes the results of synergism studies on a number of cancer derived cell lines treated with Hec1 inhibitor 110001 in combination cytotoxic drugs.

Broadly, the GI50 is the concentration giving 50% growth inhibition. Low readings indicate greater sensitivity of the cells, high ones lower sensitivity of the cells. Regarding `COc1ccc(Oc2cc(C)c(-c3csc(NC(=O)c4ccncc4)n3)c(C)c2)cc1` [compound 101001, N-(4-(4-(4-methoxyphenoxy)-2,6-dimethylphenyl)thiazol-2-yl)isonicotinamide], the “activation of apoptotic caspases” value in [1] was “did not show a similar response”; in experiment [2], “activation of apoptotic caspases”. The GI50 in experiment [3] is 273 nM; in [4], 254 nM; in experiment [5], above 30000 nM; in [6] it was above 10000 nM; in experiment [7], 40.2 nM; in experiment [8] (96 hours, listed as 110001), 104 nM. In addition, the GI50 in [8] (Homo sapiens, 96 h) stood at 96.1 nM; in [9], 85.7 nM; in experiment [10], 67.9 nM; in experiment [11], 79.6 nM; in experiment [12], 27.2 nM; in experiment [13], 28.9 nM. The GI50 in experiment [14] was above 10000 nM; in experiment [15] it was 76.8 nM; in experiment [16], above 30000 nM; in experiment [17] it was 91.6 nM; in experiment [18], 22 nM; in experiment [19] it was 143 nM.

With `COCCOc1cnc(Sc2cc(C)c(-c3csc(NC(=O)c4ccncc4)n3)c(C)c2)cn1` [compound 110095, N-(4-(4-(5-(2-methoxyethoxy)pyrazin-2-ylthio)-2,6-dimethylphenyl)thiazol-2-yl)isonicotinamide], in experiment [20], the “Combination Index” value came to 0.82 and the Synergy entry is “Yes”.
